Reference: patent US9873659B2, “Solutions of trialkali metal salts of MGDA with an excess of L-enantiomer, their manufacture and use” (BASF SE, priority 2014, dated 2018)

Key:
[1] = room temperature; colder solutions may lead to precipitation; cited from earlier work
[2] = Solubility experiments: concentrated aqueous solutions stored and checked for crystallization or precipitation; type: physicochemical; details: for sign of crystallization or precipitation on storage: aqueous solution, 90 days at 20° C.; for solids content of the concentrated aqueous solution that stayed free of crystallization or precipitation: concentrated by evaporation of water at 70° C., cooled to ambient temperature, stable 90 days at 20° C.
Description: In each case, the solubility refers to MGDA without hydrate water.
It was allowed to cool down to ambient temperature.
The aqueous solution of MGDA-K2.35Na0.65 obtained according to I.4 was concentrated by evaporation of a part of the water at 70° C. until the solids content was 65% by weight. It was allowed to cool down to ambient temperature.

solids content of the concentrated aqueous solution that stayed free of crystallization or precipitation [2] | Molecule | concentration of aqueous solution that can be made and stored [1] | sign of crystallization or precipitation on storage ([2]; solids content 64.5% by weight) | sign of crystallization or precipitation on storage ([2]; solids content 65% by weight) | sign of crystallization or precipitation on storage ([2]; solids content 61.1% by weight)
 | CC(C(=O)[O-])N(CC(=O)[O-])CC(=O)[O-].[Na+].[Na+].[Na+] (racemic) [racemic MGDA trisodium salt] | about 40 % by weight |  |  | 
64.5 % by weight | MGDA-K2.35Na0.65 [MGDA-K2.35Na0.65 obtained according to I.2] |  | did not show any sign of crystallization or precipitation |  | 
65 % by weight | MGDA-K2.35Na0.65 [MGDA-K2.35Na0.65 obtained according to I.4] |  |  | did not show any sign of crystallization or precipitation | 
61.1 % by weight | MGDA-K2.35Na0.65 [MGDA-K2.35Na0.65 obtained according to I.3] |  |  |  | did not show any sign of crystallization or precipitation
